# Values quoted from earlier work as cited in patent US10568927B2, “Methods and compositions comprising desmopressin in combination with a beta-3-adrenergic receptor agonist” (Serenity Pharmaceuticals, LLC, priority 2013, dated 2020).
# Conditions: human, in vivo
smiles,measurement,value
"NC(=O)CC[C@@H]1NC(=O)[C@H](Cc2ccccc2)NC(=O)[C@H](Cc2ccc(O)cc2)NC(=O)CCSSC[C@@H](C(=O)N2CCC[C@H]2C(=O)N[C@H](CCCN=C(N)N)C(=O)NCC(N)=O)NC(=O)[C@H](CC(N)=O)NC1=O [desmopressin, 1-desamino-8-D-arginine vasopressin]",half-life (known clearance rate),1.5 to 2.0 h
